Patent US20100216706A1, “Ghrelin Protects Substantia Nigra Dopamine Neurons” (priority 2007, published 2010)
No end group written: not given here. *: point of attachment. Octanoyl = CCCCCCCC(=O)*

Tests used:
[1] = tested on: SNpc DA neurons; assay: Whole-cell patch clamp, action potential firing of SNpc DA neurons in brain slices; format: cell-based, mice and rats
Method: Patch clamp recordings from VTA dopamine neurons: Brain slices (300 μm) containing the substantia nigra pars compacta (SNpc), were cut on a vibratome from 2-3 week old male and female mice (n=9) and rats (n=5). Briefly, animals were anesthetized with Nembutal (80 milligram/kilogram body weight) and then decapitated. The brains were rapidly removed and immersed in cold (4° C.) oxygenated bath solution (containing (mM): NaCl 150; KCl 2.5; CaCl2 2; MgCl2 2; Hepes 10; and glucose 10, pH 7.3 with NaOH). After being trimmed to contain only the SNpc, slices were transferred to a recording chamber where they were constantly perfused with bath solution at 2 milliliter/minute. Dopamine neurons in the SNpc were identified by presence of a large Ih current (>100 pA) evoked by hyperpolarizing voltage steps from −50 to −120 mV for 2 seconds. This approach identifies dopaminergic cells with >90% accuracy (Abizaid et al., 2006, J Clin Invest. 116(12):3229-39. Epub 2006 Oct. 19). In brain slices, whole-cell current clamp was used to observe spontaneous action potentials. Slices were maintained at 33° C. and perfused continuously with ASCF (bubbled with 5% CO2 and 95% O2) containing (in mM): NaCl, 124; KCl, 3; CaCl2, 2; MgCl2, 2; NaH2PO4, 1.23; NaHCO3, 26; glucose, 10, pH 7.4 with NaOH. Ghrelin was applied to the recording chamber via bath application. The pipette solution contained (mM): gluconic acid 140; CaCl2, MgCl2 2; EGTA 1; HEPES 10; Mg-ATP; 4, and Na2-GTP; 0.5, pH 7.3 with KOH
To address this question, an experiment using whole-cell patch clamp electrophysiology was performed to investigate whether ghrelin directly activates SNpc DA neurons. DA neurons (n=11) in the SNpc were identified based on their characteristic Ih currents (Johnson et al., 1992, J Neurosci 12: 483-8). Spontaneous action potentials were recorded under current clamp for at least 10 minutes of stable recording. Ghrelin (1-3 μmol) was applied via bath application.

[2] = tested on: striatal dopamine; assay: Striatal DA concentration after ghrelin injection (HPLC); format: in vivo, mice
Method: (§1) The samples were subsequently thawed in 0.4 ml of chilled 0.1 M perchloric acid and sonicated. Aliquots were taken for protein quantification using a spectrophotometric assay. Other aliquots were centrifuged, and DA levels were measured in supernatants by high pressure liquid chromatography (HPLC) with electrochemical detection. Concentrations of DA and metabolites were expressed as ng/mg protein (mean±SEM).
To further examine the effect of ghrelin on the nigrostriatal system, striatal DA concentration after ghrelin injection in wild-type mice was measured using HPLC.

[3] = tested on: tyrosine hydroxylase (TH) mRNA; assay: TH mRNA expression in the midbrain (real-time PCR); format: in vivo; settings: three hours after ghrelin injection (10 nmols), wild-type mice; saline 1.03±0.15
Method: Real-time PCR: RNA was extracted from the midbrain of 8 ghrelin-treated mice or 8 saline-treated mice using TRIzol® (Invitrogen, Carlsbad, Calif.) according to the manufacturer's instructions. cDNA was synthesized using the First-Strand cDNA synthesis kit (Amersham Biosciences), using a total of 3 μg of total RNA in 15 μl of total volume. Real-time PCR analysis of TH mRNA (SEQ ID NO. 4: 5′ […] 3′; SEQ ID NO. 5: 5′ […] 3′) was performed using iQ SYBR green supermix (Bio-Rad) and […] of each primer. Primers for 18S were used as controls. Measurements were performed on an iCycler (Bio-Rad).
Tyrosine hydroxylase (TH) is the rate limiting enzyme of dopamine biosynthesis. An experiment was performed to examine whether ghrelin alters TH mRNA expression in the midbrain.

[4] = tested on: striatal dopamine; assay: Striatal dopamine after MPTP (HPLC); format: in vivo, mice; settings: ghrelin 14 days
Method: Control animals were given saline. Animals were sacrificed and perfused 7 days later and processed for immunohistochemistry or HPLC for dopamine (DA) and metabolites. n=8-10 for ghrelin wt and ko mice; n=6 for GHSR wt/wt, homo/wt and homo/TG.
as §1
The observation that ghrelin promotes SNpc DA neuronal function, mitochondrial respiration and number raises the possibility that ghrelin may protect nigrostriatal dopaminergic system during increased cellular stress. […] In brief, mice were treated with daily IP injections of exogenous ghrelin (10 nmols) or saline for 14 days. Mice were injected immediately before the dark phase, and food was removed overnight since calorie intake and postprandial increases in glucose and insulin can suppress the action of ghrelin (Cummings et al., 2006, Physiol Behav 89: 71-84). Both ghrelin and saline treated mice were given 3 grams of standard chow the following morning at 9 am. […] After the subsequent 7 days of treatment (saline or ghrelin), TH immunoreactive neurons were counted blind by two independent researchers using the non-biased optical fractionator on the stereology program, Stereoinvestigator.

ghrelin (GSS(Octanoyl)FLSPEHQRVQQRKESKKPPAKLQPR; listed as Homo sapiens) [28 amino acid acyl-peptide esterified with octanoic acid on Ser3; endogenous ligand of GHSR]
Action potential frequency ([1]; ghrelin 1-3 μmol bath application, control 100%): 131.9%±17.5 | Identified DA neurons that responded ([1]; ghrelin bath application): 10 of 11 | Action potential frequency after washout ([1]; washout of ghrelin, control 100%): 101.9%±4.6 | Effect on DA concentration in ghsr−/− mice ([2]; ghsr−/− mice): no effect | DA concentration in ventral striata ([2]; wild-type mice after ghrelin injection): 126.5±7.26 ng/mg protein | DA concentration in dorsal striatum ([2]; wild-type mice after ghrelin injection, saline 119.4±9.6): 153±4.6 ng/mg protein | TH mRNA expression in the midbrain [3]: 2.86±0.46 | Loss of striatal dopamine vs controls, ghr/MPTP ([4]; MPTP on day 7): 45% | Striatal dopamine concentration, ghr/MPTP ([4]; MPTP on day 7): 78.4±8.8 ng/mg protein | Striatal dopamine concentration, ghr/sal ([4]; saline on day 7, sal/sal 147.4±10.2): 141.8±7.5 ng/mg protein
